Reference: paper PMC11876671, “Investigating blood–brain barrier penetration and neurotoxicity of natural products for central nervous system drug development” (Scientific Reports, 2025)
Structures can show the parent of a compound that is named as a salt.

Settings: not given

Row | Compound | PAMPA-BBB Pe(10^-6 cm/sec)
1 | COc1cc2c(c3oc(=O)c4c(c13)CCOC4=O)C1C=COC1O2 (stereo not shown) [AFLATOXIN G1] | <1 10^-6 cm/sec
2 | COc1cc2c(c3oc(=O)c4c(c13)CCC4=O)[C@@H]1CCO[C@@H]1O2 [DIHYDROAFLATOXINE B1] | 2.8 10^-6 cm/sec

Same assay, conditions: PAMPA

Row | Compound | PAMPA-BBB Pe | PAMPA-BBB permeability category | PAMPA-BBB Pe(10^-6 cm/sec)
3 | Cc1nccc2c1[nH]c1ccccc12 [HARMAN] | 60 10^-6 cm/sec |  | 
4 | Cn1c(=O)c2c(ncn2C)n(C)c1=O [caffeine, reference compound] |  | low permeability | 
5 | COc1ccc2c(c1OC)C(=O)O[C@@H]2[C@H]1c2c(cc3c(c2OC)OCO3)CCN1C [NOSCAPINE HYDROCHLORIDE] | 75 10^-6 cm/sec |  | 
6 | NC(=O)N1c2ccccc2C=Cc2ccccc21 [carbamazepine, reference compound] |  | moderate permeability | 
7 | O=C(N[C@H](CO)[C@H](O)c1ccc([N+](=O)[O-])cc1)C(Cl)Cl [CHLORAMPHENICOL] |  |  | 3.5 10^-6 cm/sec

Same assay, conditions: Table S2: compounds exhibiting moderate to high PAMPA-BBB permeability

Row | Compound | PAMPA-BBB Pe
8 | C[C@@H]1O[C@@H](O[C@H]2CC[C@@H](O[C@H]3[C@H](O)C[C@H](c4ccc5c(c4O)C(=O)C4=C(C5=O)[C@@]5(O)C(=O)C[C@](C)(O[C@H]6CC[C@H](O[C@H]7C=CC(=O)[C@H](C)O7)[C@H](C)O6)C[C@@]5(O)C=C4)O[C@@H]3C)O[C@H]2C)C=CC1=O [NCGC00163640-01] | 17 10^-6 cm/sec
9 | CC1=CC(=O)C2=C(C)C[C@@H]3OC(=O)[C@@H](C)[C@H]3C=C12 [NCGC00160288-01] | 74 10^-6 cm/sec
10 | C/C=C/c1ccc(OC(C)[C@@H](O)c2ccc(O)c(OC)c2)c(OC)c1 (stereo partly shown) [NCGC00160251-01] | 150 10^-6 cm/sec
11 | CN(C)CCc1cc2c(c3c1ccc1ccccc13)OCO2 [NCGC00160247-01] | 27 10^-6 cm/sec
12 | COC(=O)C[C@H]1C2(C)C[C@]34O[C@@]5(C)O[C@@]6([C@H](OC(C)=O)C(OC(C)=O)[C@]7(C)C(/C(=C(/O)C(C)C)C(=O)O[C@H]7c7ccoc7)[C@@]6(O5)[C@H](OC(C)=O)[C@@]3(O)C2OC(=O)C(C)C)[C@]14C (stereo partly shown) [NCGC00264007-02] | 28 10^-6 cm/sec
13 | COc1cc(OC)c2c(c1)OC(c1ccccc1)CC2=O (stereo not shown) [NCGC00142553-05] | 176 10^-6 cm/sec
14 | CC1(C)C=Cc2c(ccc(C(=O)/C=C/c3ccccc3)c2O)O1 [NCGC00187466-02] | 10 10^-6 cm/sec
15 | COc1cc(O)c2c(c1)/C=C/C[C@H](O)[C@H](O)[C@H](O)CCC[C@H](C)OC2=O [NCGC00189513-01] | 245 10^-6 cm/sec
16 | COc1cc(C(=O)O[C@H]2CC(C)=CCC/C(C)=C/[C@@H](O)C2C(C)C)ccc1O (stereo partly shown) [NCGC00163636-01] | 88 10^-6 cm/sec
17 | COc1cc2c(cc1OC)C(C(=O)c1ccc(OC)c(OC)c1O)=NCC2 [NCGC00160282-01] | 19 10^-6 cm/sec
18 | COc1ccc(-c2oc3cc(OC)c(OC)c(OC)c3c(=O)c2OC)cc1 [NCGC00264011-02] | 308 10^-6 cm/sec
19 | CCOC(=O)c1c(C)cc(O)c(C=O)c1O [NCGC00095517-01] | 110 10^-6 cm/sec
20 | CCCCCc1c2c(cc(O)c1C(=O)O)OC(=O)c1cc(C(=O)CCCC)c(OC)cc1O2 [NCGC00160140-01] | 120 10^-6 cm/sec
21 | COc1cc2c(cc1OC)C(=O)OC2 [NCGC00095581-04] | 12 10^-6 cm/sec
22 | COc1cc2c(cc1O)[C@@H]1Cc3ccc(OC)c(O)c3CN1CC2 [NCGC00179539-03] | 78 10^-6 cm/sec
23 | CC(=O)OC(C)(C)[C@@H]1Cc2cc3ccc(=O)oc3cc2O1 [NCGC00178115-02] | 128 10^-6 cm/sec
24 | O=C1CCC[C@H]2[C@H]3CCCN4CCCC(=CN12)[C@@H]34 [NCGC00160276-01] | 33 10^-6 cm/sec
25 | COc1cc(OC)c2c(c1Cl)O[C@]1(C2=O)[C@H](C)CC(=O)C[C@@H]1OC [NCGC00016380-01] | 31 10^-6 cm/sec
26 | COc1ccc2c(c1)O[C@@H]1COc3cc(OC)c(OC)cc3[C@@H]1C2=O [NCGC00178970-02] | 355 10^-6 cm/sec
27 | COc1ccc(C(=O)OC2CC3CC[C@H](C2)N3C(C)=O)cc1OC (stereo partly shown) [NCGC00160255-01] | 22 10^-6 cm/sec
28 | CC(=O)Oc1ccc(/C=C/c2cc(OC(C)=O)cc(OC(C)=O)c2)cc1 [NCGC00095675-03] | 200 10^-6 cm/sec
29 | CO[C@H]1C=C2CCN(C)[C@H]2C2c3cc4c(cc3C(=O)O[C@@H]21)OCO4 (stereo partly shown) [NCGC00179416-02] | 19 10^-6 cm/sec
30 | COc1cc(=O)n(C)c2c(OCC3OC(C)(C)OC3(C)C)cccc12 (stereo not shown) [NCGC00160200-01] | 106 10^-6 cm/sec
31 | COc1cccc2c(=O)c3ccoc3n(C)c12 [NCGC00160208-01] | 54 10^-6 cm/sec
32 | COc1ccc([C@@H](C)C(=O)c2ccc(O)cc2O)cc1 [NCGC00160149-03] | 345 10^-6 cm/sec
33 | COc1ccc([C@H]2COc3c(ccc(O)c3OC)C2)c(OC)c1O [NCGC00179004-02] | 127 10^-6 cm/sec
34 | COc1ccc(C(=O)OC2C[C@H]3CC[C@H](C2)N3C)cc1OC (stereo partly shown) [NCGC00016471-04] | 16 10^-6 cm/sec

Same assay, conditions: Table S3: compounds exhibiting low PAMPA-BBB permeability

Row | Compound | PAMPA-BBB Pe(10^-6 cm/sec)
35 | Cc1cc(O)c(C=O)c(O)c1C(=O)O [NCGC00095742-01] | 2.7 10^-6 cm/sec
36 | CC1(C)C(=O)C=C[C@@]2(C)C1CC(=O)[C@]1(C)C2CC[C@@]2(C)[C@H](c3ccoc3)OC(=O)[C@H]3O[C@]321 (stereo partly shown) [NCGC00179119-02] | <1 10^-6 cm/sec
37 | Cc1cc(O)c(C)c(O)c1C(=O)O [NCGC00095485-03] | <1 10^-6 cm/sec
38 | CC1=CC(=O)/C(=C(/C)O)C(=O)O1 [NCGC00254206-01] | 3.3 10^-6 cm/sec
39 | C=C/C(C)=C/[C@@]1(C)SC(=O)C(C)=C1O [NCGC00261593-01] | <1 10^-6 cm/sec
40 | CN(N=O)c1cc(O)ccc1O [NCGC00261088-01] | <1 10^-6 cm/sec
41 | COC(=O)C1=CC[C@@]23CC[C@@H]([C@@](C)(/C=C/C=C(\C)C(=O)O)OC2=O)[C@@]3(OC(C)=O)CC1 [NCGC00344122-04] | <1 10^-6 cm/sec
42 | O=C1N[C@@H](Cc2c[nH]c3ccccc23)C(=O)N[C@H]1Cc1c[nH]c2ccccc12 [NCGC00160254-01] | <1 10^-6 cm/sec
43 | OC[C@H]1O[C@@H](Oc2cccc3ccccc23)[C@H](O)[C@@H](O)[C@H]1O [NCGC00351880-01] | <1 10^-6 cm/sec
44 | OC1c2ccccc2N=C2CCCN21 (stereo not shown) [NCGC00163606-01] | 5.3 10^-6 cm/sec
45 | O=C(CO)c1c[nH]c2ccccc12 [NCGC00182562-01] | 6.7 10^-6 cm/sec
46 | \LYCORINE HYDROCHLORIDE | 3.2 10^-6 cm/sec
47 | c1ccc2c3c([nH]c2c1)[C@H]1[C@@H]2CC[C@@H]([C@@H]4CCCN[C@@H]42)N1CC3 [NCGC00262532-02] | <1 10^-6 cm/sec
48 | COc1cc(C(O)CO)ccc1OS(=O)(=O)[O-].[K+] (stereo not shown) [NCGC00261311-01] | <1 10^-6 cm/sec
49 | O=C1CC[C@]23/C=C/C(=O)NCCCCNCCCNC(=O)/C=C/c4ccc(c2c4)O[C@@H]3C1 [NCGC00263997-01] | <1 10^-6 cm/sec
50 | COc1ccc(C(=O)CC(=O)O)c2c1C=CC(C)(C)O2 [NCGC00074767-03] | <1 10^-6 cm/sec
51 | C[C@]12O[C@H](C[C@@]1(O)C(=O)O)n1c3ccccc3c3c4c(c5c6ccccc6n2c5c31)CNC4=O [NCGC00163504-01] | <1 10^-6 cm/sec
52 | O=C(O)c1cc2ccccc2[nH]1 [NCGC00094957-03] | <1 10^-6 cm/sec
53 | N[C@H](C(=O)O)c1ccc(O)c(C(=O)O)c1 [NCGC00024539-02] | <1 10^-6 cm/sec
54 | COc1cc(/C=C2/C(=O)Nc3ccccc32)cc(OC)c1O [NCGC00343740-01] | 4.8 10^-6 cm/sec
55 | COC(=O)[C@H](Cc1ccccc1)NC(=O)/C(=C1\OC(=O)C(c2ccccc2)=C1O)c1ccccc1 [NCGC00263991-01] | <1 10^-6 cm/sec
56 | COc1cc2oc(=O)c3c4c(cc5ccc(c1CCN(C)C)c2c53)OCO4 [NCGC00160212-01] | <1 10^-6 cm/sec
57 | COc1cc2oc(=O)ccc2cc1O [NCGC00163577-02] | 2.2 10^-6 cm/sec
58 | Cn1c2c(c(=O)c3ccccc31)C[C@@H](O)C(C)(C)O2 [NCGC00160238-01] | <1 10^-6 cm/sec
59 | COc1ccc([C@@H]2[C@@H](O)[C@H](O)[C@@H](C)N2C)cc1OC [NCGC00160242-01] | 1.3 10^-6 cm/sec
60 | O=C(OC[C@H]1O[C@H](OC(=O)c2cc(O)c(O)c(OC(=O)c3cc(O)c(O)c(O)c3)c2)[C@H](OC(=O)c2cc(O)c(O)c(OC(=O)c3cc(O)c(O)c(O)c3)c2)[C@@H](OC(=O)c2cc(O)c(O)c(OC(=O)c3cc(O)c(O)c(O)c3)c2)[C@@H]1OC(=O)c1cc(O)c(O)c(OC(=O)c2cc(O)c(O)c(O)c2)c1)c1cc(O)c(O)c(OC(=O)c2cc(O)c(O)c(O)c2)c1 [NCGC00263877-02] | <1 10^-6 cm/sec
61 | Cc1c(O)c2c(c(C(=O)/C=C/c3ccccc3)c1O)OC(C)(C)C=C2 [NCGC00187465-01] | <1 10^-6 cm/sec
62 | CC(=O)NCCc1c[nH]c2ccccc12 [NCGC00260786-01] | 5.7 10^-6 cm/sec
63 | COC1=C(O)C(=O)c2c(cc3oc(C(C)=O)c(O)c3c2O)C1=O [NCGC00178066-02] | <1 10^-6 cm/sec
64 | COc1cc(C/C=C\c2ccccc2)c(OC)cc1O [NCGC00160148-01] | 1.3 10^-6 cm/sec
